Measurements: patent US8791264B2 (Purdue Pharma L.P., priority 2006, dated 2014)

target: T1, N-type calcium channel (NTCC) (Homo sapiens, UniProt Q00975); experiment: FLIPR calcium mobilization assay for N-type calcium channel; assay type: cell-based; settings: calcium mobilization in vitro assay; differentiated IMR32 cells
T1 construct: host or cells: IMR32 cells differentiated with dibutyryl cAMP and bromodeoxyuridine
Description: Unless noted otherwise, cell culture reagents were purchased from Mediatech of Herndon, Md. IMR32 cells (American Type Culture Collection, ATCC, Manassas, Va.) were routinely cultured in growth medium consisting of minimum essential medium containing 10% fetal bovine serum (FBS, Hyclone, Logan, Utah), 100 U/mL penicillin, 100 μg/mL streptomycin, 2 mM L-glutamine, 1 mM sodium pyruvate, and 1× MEM non-essential amino acids. 80-90% confluent flasks of cells were differentiated using the following differentiation medium: Growth medium plus 1 mM dibutyryl cyclic AMP (Sigma, St. Louis, Mo.), and 2.5 μM bromodeoxyuridine (Sigma). Cells were differentiated for 8 days by replacing differentiation medium every 2-3 days.
FLIPR Calcium Mobilization Assay for N-Type Calcium Channel.
One day prior to performing this assay, differentiated IMR32 cells were treated with 1× CellStripper, and seeded on poly-D-lysine-coated 96-well clear-bottom black plates (Becton Dickinson, Franklin Lakes, N.J.) at 200,000 cells/well. On the day of the assay, the cell plates were washed with IMR32 buffer (127 mM NaCl, 1 mM KCl, 2 mM MgCl2, 700 μM NaH2PO4, 5 mM CaCl2, 5 mM NaHCO3, 8 mM HEPES, 10 mM glucose, pH 7.4), then pre-stimulated with KCl and loaded as follows: 0.05 mL of IMR32 buffer, 0.05 mL of each compound tested diluted in IMR32 buffer containing 20 μM nitrendipine (Sigma), and 0.1 mL KCl dissolved in IMR32 buffer, plus Fluo-4 were added (3 μM final concentration, Molecular Probes, Eugene, Oreg.). Final test compound concentrations ranged from about 846 pM to about 17 μM, final nitrendipine concentration was 5 μM, and final KCl concentration was 90 mM. After 1 hour, the cells were washed twice with 0.05 mL of each compound is tested in nitrendipine-containing IMR32 buffer (no KCl or Fluo-4), and then replaced with 0.1 mL of each compound tested in nitrendipine-containing IMR32 buffer. Plates were then transferred to a Fluorimetric Imaging Plate Reader (FLIPR^96, Molecular Devices, Inc., Sunnyvale, Calif.) for assay. The FLIPR measured basal Fluo-4 fluorescence for 315 seconds (i.e., 5 minutes and 15 seconds), then added 0.1 mL KCl agonist dissolved in IMR32 buffer and measured fluorescence for another 45 seconds. Final test compound concentrations on the cells after FLIPR read ranged from about 846 pM to about 17 μM, final nitrendipine concentration was 5 μM, and final KCl concentration was 90 mM. Data were collected over the entire time course and analyzed using Excel, Graph Pad Prism (version 3.02, Graph Pad, San Diego, Calif.), or an in-house non-linear regression analysis software.

T1 sequence (Q00975 whole entry): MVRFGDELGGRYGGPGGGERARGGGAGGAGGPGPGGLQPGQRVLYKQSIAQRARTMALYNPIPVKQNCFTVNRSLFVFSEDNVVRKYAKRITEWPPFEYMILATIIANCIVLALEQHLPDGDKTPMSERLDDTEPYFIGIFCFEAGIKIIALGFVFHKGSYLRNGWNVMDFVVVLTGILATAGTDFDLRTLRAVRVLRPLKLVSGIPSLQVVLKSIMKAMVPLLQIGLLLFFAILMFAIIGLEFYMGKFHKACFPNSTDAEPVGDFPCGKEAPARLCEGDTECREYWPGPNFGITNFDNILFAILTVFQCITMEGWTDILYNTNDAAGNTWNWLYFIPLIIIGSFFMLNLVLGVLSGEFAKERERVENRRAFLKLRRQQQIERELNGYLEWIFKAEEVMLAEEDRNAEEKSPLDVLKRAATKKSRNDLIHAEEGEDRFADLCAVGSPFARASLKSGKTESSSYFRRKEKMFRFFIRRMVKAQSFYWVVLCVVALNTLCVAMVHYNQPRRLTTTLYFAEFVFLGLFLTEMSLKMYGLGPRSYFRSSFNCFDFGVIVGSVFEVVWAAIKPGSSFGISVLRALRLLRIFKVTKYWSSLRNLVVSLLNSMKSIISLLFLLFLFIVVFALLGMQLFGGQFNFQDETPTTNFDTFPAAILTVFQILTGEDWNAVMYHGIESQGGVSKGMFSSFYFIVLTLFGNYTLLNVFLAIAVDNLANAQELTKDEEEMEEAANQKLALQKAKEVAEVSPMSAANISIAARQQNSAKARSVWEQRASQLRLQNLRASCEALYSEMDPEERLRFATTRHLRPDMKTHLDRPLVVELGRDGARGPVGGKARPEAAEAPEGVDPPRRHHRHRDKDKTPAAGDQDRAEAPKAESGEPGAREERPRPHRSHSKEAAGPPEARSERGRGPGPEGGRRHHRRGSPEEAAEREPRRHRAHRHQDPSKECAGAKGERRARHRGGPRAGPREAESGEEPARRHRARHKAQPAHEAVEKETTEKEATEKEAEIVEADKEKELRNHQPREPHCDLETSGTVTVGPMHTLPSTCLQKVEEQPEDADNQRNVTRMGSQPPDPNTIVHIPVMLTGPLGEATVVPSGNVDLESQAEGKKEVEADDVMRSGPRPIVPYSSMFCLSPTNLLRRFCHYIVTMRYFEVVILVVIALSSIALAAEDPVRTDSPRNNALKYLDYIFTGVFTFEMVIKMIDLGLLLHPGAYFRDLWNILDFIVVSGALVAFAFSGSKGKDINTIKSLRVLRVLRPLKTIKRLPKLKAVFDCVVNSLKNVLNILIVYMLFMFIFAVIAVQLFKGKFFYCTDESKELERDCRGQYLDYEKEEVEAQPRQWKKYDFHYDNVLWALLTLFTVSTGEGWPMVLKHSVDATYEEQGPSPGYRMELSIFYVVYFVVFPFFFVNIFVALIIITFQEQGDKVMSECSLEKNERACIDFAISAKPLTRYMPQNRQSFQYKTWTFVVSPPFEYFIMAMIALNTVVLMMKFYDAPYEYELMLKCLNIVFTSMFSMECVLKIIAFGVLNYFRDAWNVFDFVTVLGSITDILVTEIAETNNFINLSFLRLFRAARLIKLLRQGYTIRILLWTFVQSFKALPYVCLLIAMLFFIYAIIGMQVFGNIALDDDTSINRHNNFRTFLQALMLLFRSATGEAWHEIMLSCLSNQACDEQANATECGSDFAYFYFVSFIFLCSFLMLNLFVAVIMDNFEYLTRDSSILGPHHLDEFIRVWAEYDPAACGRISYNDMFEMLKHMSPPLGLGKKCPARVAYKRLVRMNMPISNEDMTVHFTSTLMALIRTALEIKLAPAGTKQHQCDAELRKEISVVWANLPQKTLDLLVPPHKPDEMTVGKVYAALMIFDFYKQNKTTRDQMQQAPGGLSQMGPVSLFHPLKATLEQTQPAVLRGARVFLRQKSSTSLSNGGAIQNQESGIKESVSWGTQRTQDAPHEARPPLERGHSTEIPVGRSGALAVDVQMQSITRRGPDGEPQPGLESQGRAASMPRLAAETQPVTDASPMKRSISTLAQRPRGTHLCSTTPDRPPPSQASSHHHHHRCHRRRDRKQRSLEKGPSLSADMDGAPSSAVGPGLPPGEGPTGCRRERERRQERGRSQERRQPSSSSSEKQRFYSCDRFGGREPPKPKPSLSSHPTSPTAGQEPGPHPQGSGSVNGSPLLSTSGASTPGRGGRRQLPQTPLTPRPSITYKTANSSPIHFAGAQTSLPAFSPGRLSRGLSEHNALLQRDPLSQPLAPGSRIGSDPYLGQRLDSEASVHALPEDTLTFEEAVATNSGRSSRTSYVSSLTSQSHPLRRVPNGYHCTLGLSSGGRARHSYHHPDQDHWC
T1 sequence (P54289 25-956 partner limits assumed): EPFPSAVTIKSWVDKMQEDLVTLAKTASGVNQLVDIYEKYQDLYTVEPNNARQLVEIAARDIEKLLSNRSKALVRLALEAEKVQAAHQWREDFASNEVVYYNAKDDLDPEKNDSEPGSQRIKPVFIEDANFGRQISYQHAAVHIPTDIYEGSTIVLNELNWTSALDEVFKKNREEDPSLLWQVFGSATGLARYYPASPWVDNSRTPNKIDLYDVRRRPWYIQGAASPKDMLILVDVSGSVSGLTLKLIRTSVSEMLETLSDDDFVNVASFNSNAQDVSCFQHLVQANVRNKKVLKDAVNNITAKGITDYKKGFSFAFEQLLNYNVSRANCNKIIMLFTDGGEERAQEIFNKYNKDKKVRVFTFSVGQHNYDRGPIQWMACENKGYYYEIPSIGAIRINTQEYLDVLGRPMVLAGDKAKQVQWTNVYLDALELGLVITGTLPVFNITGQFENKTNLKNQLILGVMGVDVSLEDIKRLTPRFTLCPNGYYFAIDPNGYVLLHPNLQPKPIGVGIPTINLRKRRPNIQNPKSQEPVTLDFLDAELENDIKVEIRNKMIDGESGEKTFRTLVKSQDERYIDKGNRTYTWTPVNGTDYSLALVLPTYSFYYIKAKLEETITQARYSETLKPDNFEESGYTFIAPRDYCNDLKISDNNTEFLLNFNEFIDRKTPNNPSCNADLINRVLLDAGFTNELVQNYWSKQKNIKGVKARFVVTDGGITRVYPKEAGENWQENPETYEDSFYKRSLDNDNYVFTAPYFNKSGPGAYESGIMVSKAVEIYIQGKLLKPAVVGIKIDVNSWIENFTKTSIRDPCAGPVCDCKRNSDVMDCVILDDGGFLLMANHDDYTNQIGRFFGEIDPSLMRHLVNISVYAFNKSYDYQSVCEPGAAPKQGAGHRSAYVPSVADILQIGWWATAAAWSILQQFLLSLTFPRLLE
T1 sequence (P54289 957-1103 partner limits assumed): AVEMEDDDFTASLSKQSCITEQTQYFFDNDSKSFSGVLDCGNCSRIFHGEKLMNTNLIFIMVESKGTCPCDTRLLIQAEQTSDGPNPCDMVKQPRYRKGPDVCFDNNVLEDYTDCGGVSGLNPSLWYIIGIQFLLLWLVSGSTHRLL
T1 sequence (P54284 whole entry partner): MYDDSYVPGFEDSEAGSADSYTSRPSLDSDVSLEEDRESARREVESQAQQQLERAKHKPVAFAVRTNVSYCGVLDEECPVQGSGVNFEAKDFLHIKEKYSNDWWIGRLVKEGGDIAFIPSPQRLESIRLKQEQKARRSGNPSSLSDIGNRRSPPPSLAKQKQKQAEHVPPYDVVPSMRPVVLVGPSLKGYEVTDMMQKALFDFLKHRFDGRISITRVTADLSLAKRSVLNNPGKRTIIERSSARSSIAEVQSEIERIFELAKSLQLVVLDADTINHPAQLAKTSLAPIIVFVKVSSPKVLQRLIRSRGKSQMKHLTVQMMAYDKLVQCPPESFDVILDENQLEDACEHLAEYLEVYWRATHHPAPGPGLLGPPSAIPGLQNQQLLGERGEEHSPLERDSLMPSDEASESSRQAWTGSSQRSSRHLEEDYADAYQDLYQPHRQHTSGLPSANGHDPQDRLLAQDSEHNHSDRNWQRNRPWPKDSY

Question: Which IC50 does the source give for COc1ccc(CNCC(=O)N2CCC(N(C3CC3)S(=O)(=O)c3ccccc3)CC2)cc1 [Compound 97, N-Cyclopropyl-N-{1-[2-(4-methoxy-benzylamino)acetyl]-piperidin-4-yl}-benzenesulfonamide] here?
Answer: 2360 nM

Question: CC(C)N(C1CCN(C(=O)C2CNC2)CC1)S(=O)(=O)c1cccc(C(F)(F)F)c1 [N-[1-(azetidine-3-carbonyl)-piperidin-4-yl]-N-isopropyl-3-trifluoromethyl-benzenesulfonamide] was tested. Which IC50 did it give?
Answer: 2910 nM

Question: With Cc1cccc(C)c1NC(=O)CN1CCC(N(C(C)C)S(=O)(=O)c2cccc(C(F)(F)F)c2)CC1 [Compound 42a, N-(2,6-Dimethylphenyl)-2-{4-[isopropyl-(3-trifluoromethylbenzenesulfonyl)amino]-piperidin-1-yl}-acetamide] as the compound, how does the IC50 read?
Answer: 1130 nM

Question: Which IC50 does the source give for CC(C)N(C1CCN(C(=O)CCNc2cccc(F)c2)CC1)S(=O)(=O)c1cccc(C(F)(F)F)c1 [N-{1-[3-(3-fluoro-phenylamino)-propionyl]-piperidin-4-yl}-N-isopropyl-3-trifluoromethyl-benzenesulfonamide] here?
Answer: 1040 nM

Question: For COc1ccc(C(F)(F)F)cc1NC(=O)CN1CCC(N(C2CC2)S(=O)(=O)c2cccc(C(F)(F)F)c2)CC1 [Compound 83, 2-{4-[Cyclopropyl-(3-trifluoromethylbenzenesulfonyl)amino]-piperidin-1-yl}-N-(2-methoxy-5-trifluoromethylphenyl)-acetamide], which IC50 is on record?
Answer: 10000 to 20000 nM

Question: How did the IC50 turn out when Cc1cccc(S(=O)(=O)N(C2CC2)C2CCN(CC(=O)Nc3ccc(F)cc3)CC2)c1 [Compound 45, 2-{4-[Cyclopropyl-(toluene-3-sulfonyl)amino]-piperidin-1-yl}-N-(4-fluorophenyl)acetamide] was run?
Answer: 1390 nM

Question: For O=C(CN1CCC(N(C2CC2)S(=O)(=O)c2ccc(Cl)cc2)CC1)Nc1ccc(F)cc1 [Compound 49, 2-{4-[(4-Chlorobenzenesulfonyl)cyclopropylamino]-piperidin-1-yl}-N-(4-fluorophenyl)acetamide], which IC50 is on record?
Answer: 1310 nM

Question: How did the IC50 turn out when O=C(CN1CCC(N(C2CC2)S(=O)(=O)c2cccc(C(F)(F)F)c2)CC1)Nc1cc(C(F)(F)F)ccc1Cl [Compound 77, N-(2-Chloro-5-trifluoromethylphenyl)-2-{4-[cyclopropyl-(3-trifluoromethylbenzenesulfonyl)amino]-piperidin-1-yl}-acetamide] was run?
Answer: 6630 nM

Question: With CC(C)N(C1CCN(CC(N)=O)CC1)S(=O)(=O)c1cccc(C(F)(F)F)c1 [Compound 33, 2-{4-[Isopropyl-(3-trifluoromethylbenzenesulfonyl)amino]-piperidin-1-yl}-acetamide] as the compound, how does the IC50 read?
Answer: 10000 to 20000 nM

Question: For CC(C)N(C1CCN(C(=O)C(N)Cc2csc3ccccc23)CC1)S(=O)(=O)c1cccc(C(F)(F)F)c1 (stereo not drawn) [N-[1-(2-amino-3-benzo[b]thiophen-3-yl-propionyl)-piperidin-4-yl]-N-isopropyl-3-trifluoromethyl-benzenesulfonamide], which IC50 is on record?
Answer: 470 nM

Question: Which IC50 does the source give for CC(C)N(C1CCN(C(=O)CCNc2ccc(C#N)cc2)CC1)S(=O)(=O)c1cccc(C(F)(F)F)c1 [N-{1-[3-(4-cyano-phenylamino)-propionyl]-piperidin-4-yl}-N-isopropyl-3-trifluoromethyl-benzenesulfonamide] here?
Answer: 1390 nM

Question: How did the IC50 turn out when C=CCC(N)C(=O)N1CCC(N(C(C)C)S(=O)(=O)c2cccc(C(F)(F)F)c2)CC1 (stereo not drawn) [N-[1-(2-amino-pent-4-enoyl)-piperidin-4-yl]-N-isopropyl-3-trifluoromethyl-benzenesulfonamide] was run?
Answer: 2940 nM

Question: Which IC50 does the source give for NCCN1CCC(N(C2CC2)S(=O)(=O)c2cccc(C(F)(F)F)c2)CC1 [Compound 114, N-[1-(2-Aminoethyl)-piperidin-4-yl]-N-cyclopropyl-3-trifluoromethylbenzenesulfonamide] here?
Answer: 1490 nM

Question: Which IC50 does the source give for Cc1cccc(S(=O)(=O)N(C2CC2)C2CCN(CC(=O)NCC(C)C)CC2)c1 [Compound 35, 2-{4-[Cyclopropyl-(toluene-3-sulfonyl)amino]-piperidin-1-yl}-N-isobutylacetamide] here?
Answer: 5930 nM

Question: For COCCNCC(=O)N1CCC(N(C(C)C)S(=O)(=O)c2cccc(C(F)(F)F)c2)CC1 [Compound 95, N-Isopropyl-N-{1-[2-(2-methoxy-ethylamino)acetyl]-piperidin-4-yl}-3-trifluoromethylbenzenesulfonamide], which IC50 is on record?
Answer: 2240 nM

Question: CC(NCCCn1ccnc1)C(=O)N1CCC(N(C(C)C)S(=O)(=O)c2cccc(C(F)(F)F)c2)CC1 (stereo not drawn) [Compound 90, N-{1-[2-(3-Imidazol-1-yl-propylamino)propionyl]-piperidin-4-yl}-N-isopropyl-3-trifluoromethylbenzenesulfonamide] was tested. Which IC50 did it give?
Answer: 9560 nM

Question: CCC(NC1CC1)C(=O)N1CCC(N(C(C)C)S(=O)(=O)c2cccc(C(F)(F)F)c2)CC1 (stereo not drawn) [Compound 92, N-[1-(2-Cyclopropylaminobutyryl)-piperidin-4-yl]-N-isopropyl-3-trifluoromethylbenzenesulfonamide] was tested. Which IC50 did it give?
Answer: 5270 nM

Question: For O=C(CN1CCC(N(C2CC2)S(=O)(=O)c2ccccc2)CC1)Nc1ccc(F)cc1 [Compound 48, 2-[4-(Benzenesulfonylcyclopropylamino)-piperidin-1-yl]-N-(4-fluorophenyl)acetamide], which IC50 is on record?
Answer: 2260 nM

Question: How did the IC50 turn out when CC(C)N(C1CCN(C(=O)CNc2ccc(F)cc2)CC1)S(=O)(=O)c1cccc(C(F)(F)F)c1 [Compound 17, N-{1-[2-(4-Fluorophenylamino)acetyl]-piperidin-4-yl}-N-isopropyl-3-trifluoromethylbenzenesulfonamide] was run?
Answer: 1680 nM

Question: How did the IC50 turn out when CN(C1CCN(C(=O)CC(=O)Nc2ccc(F)cc2F)CC1)S(=O)(=O)c1cccc(C(F)(F)F)c1 [Compound 28, N-(2,4-Difluorophenyl)-3-{4-[methyl-(3-trifluoromethylbenzene-sulfonyl)amino]-piperidin-1-yl}-3-oxo-propionamide] was run?
Answer: 4900 nM

Question: Which IC50 does the source give for CN(C1CCN(CC(=O)Nc2nc3ccc(F)cc3s2)CC1)S(=O)(=O)c1cccc(C(F)(F)F)c1 [Compound 65] here?
Answer: 2160 nM

Question: O=C(CN1CCC(NS(=O)(=O)c2cccc(C(F)(F)F)c2)CC1)Nc1ccc(C(F)(F)F)c(C(F)(F)F)c1 [N-(3,4-bis-trifluoromethylphenyl)-2-{4-[(3-trifluoromethylbenzenesulfonyl)amino]-piperidin-1-yl}-acetamide] was tested. Which IC50 did it give?
Answer: 1220 nM

Question: How did the IC50 turn out when CC(C)NC(=O)C(=O)N1CCC(N(C2CC2)S(=O)(=O)c2cccc(C(F)(F)F)c2)CC1 [2-{4-[cyclopropyl-(3-trifluoromethylbenzenesulfonyl)-amino]-piperidin-1-yl}-N-isopropyl-2-oxo-acetamide] was run?
Answer: 3200 nM

Question: How did the IC50 turn out when O=C(CN1CCC(NS(=O)(=O)c2cccc(C(F)(F)F)c2)CC1)Nc1ccc(F)cc1 [Compound 116, N-(4-Fluorophenyl)-2-[4-(3-trifluoromethylbenzenesulfonylamino)-piperidin-1-yl]-acetamide] was run?
Answer: 1240 nM

Question: For CC(C)N(C1CCN(C(=O)CC(N)c2cccs2)CC1)S(=O)(=O)c1cccc(C(F)(F)F)c1 (stereo not drawn) [N-[1-(3-amino-3-thiophen-2-yl-propionyl)-piperidin-4-yl]-N-isopropyl-3-trifluoromethyl-benzenesulfonamide], which IC50 is on record?
Answer: 1100 nM

Question: Which IC50 does the source give for O=C(CNCc1ccc(F)cc1)N1CCC(N(C2CC2)S(=O)(=O)c2ccccc2)CC1 [Compound 98, N-Cyclopropyl-N-{1-[2-(4-fluorobenzylamino)acetyl]-piperidin-4-yl}-benzenesulfonamide] here?
Answer: 2670 nM

Question: How did the IC50 turn out when COc1ccc(NCCC(=O)N2CCC(N(C(C)C)S(=O)(=O)c3cccc(C(F)(F)F)c3)CC2)cc1 [N-isopropyl-N-{1-[3-(4-methoxy-phenylamino)-propionyl]-piperidin-4-yl}-3-trifluoromethyl-benzenesulfonamide] was run?
Answer: 1000 nM

Question: How did the IC50 turn out when Cc1ccc(NC(=O)CN2CCC(N(C(C)C)S(=O)(=O)c3cccc(C(F)(F)F)c3)CC2)cc1 [Compound 42e, 2-{4-[Isopropyl-(3-trifluoromethylbenzenesulfonyl)amino]-piperidin-1-yl}-N-p-tolyl-acetamide] was run?
Answer: 1630 nM

Question: Which IC50 does the source give for C#CCC(N)C(=O)N1CCC(N(C(C)C)S(=O)(=O)c2cccc(C(F)(F)F)c2)CC1 (stereo not drawn) [N-[1-(2-amino-pent-4-ynoyl)-piperidin-4-yl]-N-isopropyl-3-trifluoromethyl-benzenesulfonamide] here?
Answer: 5960 nM

Question: With CC(C)N(C1CCN(C(=O)C2(N)CCOCC2)CC1)S(=O)(=O)c1cccc(C(F)(F)F)c1 [N-[1-(4-amino-tetrahydro-pyran-4-carbonyl)-piperidin-4-yl]-N-isopropyl-3-trifluoromethyl-benzenesulfonamide] as the compound, how does the IC50 read?
Answer: 8330 nM
